Values joined by “and” are separate entries in the source; they are usually repeats but may differ in a detail not shown here. Equal entries are not always repeated.
Test: xn = mol fraction of the nth substance listed

[Br-].[NH4+] + O
298.15 K, 101 kPa
Details | viscosity [mPa·s]
x1 = 0.0089 | 0.8738
x1 = 0.0177 | 0.8563
x1 = 0.0348 | 0.8265

[Cl-].[K+] + O
Details | viscosity
293.15 K, 101 kPa, x1 = 0.005905 | 0.9971 mPa·s and 0.9972 mPa·s
293.15 K, 101 kPa, x1 = 0.009253 | 0.9943 mPa·s
293.15 K, 101 kPa, x1 = 0.01811 | 0.9892 mPa·s and 0.989 mPa·s
293.15 K, 101 kPa, x1 = 0.02711 | 0.9882 mPa·s and 0.9881 mPa·s
293.15 K, 101 kPa, x1 = 0.03656 | 0.9913 mPa·s
293.15 K, 101 kPa, x1 = 0.0468 | 0.9995 mPa·s and 0.9994 mPa·s
293.15 K, 101 kPa, x1 = 0.07583 | 1.047 mPa·s
297.65 K, 100 kPa, x1 = 0.02628 | 0.905 mPa·s and 0.904 mPa·s
298.15 K, 100 kPa, x1 = 0.05933 | 0.932 mPa·s and 0.933 mPa·s
298.15 K, 101 kPa, x1 = 0.005905 | 0.8895 mPa·s
298.15 K, 101 kPa, x1 = 0.009253 | 0.8885 mPa·s and 0.8886 mPa·s
298.15 K, 101 kPa, x1 = 0.01811 | 0.8883 mPa·s and 0.8882 mPa·s
298.15 K, 101 kPa, x1 = 0.02711 | 0.8911 mPa·s and 0.891 mPa·s
298.15 K, 101 kPa, x1 = 0.0468 | 0.908 mPa·s and 0.9079 mPa·s
298.15 K, 101 kPa, x1 = 0.05806 | 0.9238 mPa·s
298.15 K, 101 kPa, x1 = 0.06612 | 0.9378 mPa·s and 0.9377 mPa·s
298.15 K, 101 kPa, x1 = 0.07583 | 0.9577 mPa·s and 0.9576 mPa·s
298.15 K, 101.3 kPa, x1 = 0.00072 | 0.8908 mPa·s
298.15 K, 101.3 kPa, x1 = 0.00162 | 0.8906 mPa·s
298.15 K, 101.3 kPa, x1 = 0.002874 | 0.8911 mPa·s
298.15 K, 101.3 kPa, x1 = 0.004484 | 0.8895 mPa·s
298.15 K, 101.3 kPa, x1 = 0.007154 | 0.8891 mPa·s
298.15 K, 101.3 kPa, x1 = 0.01245 | 0.8885 mPa·s
298.15 K, 101.3 kPa, x1 = 0.0177 | 0.8882 mPa·s
299.15 K, 100 kPa, x1 = 0.07333 | 0.95 mPa·s and 0.949 mPa·s
299.65 K, 100 kPa, x1 = 0.04316 | 0.888 mPa·s
300.15 K, 100 kPa, x1 = 0.008975 | 0.86 mPa·s and 0.858 mPa·s
303.15 K, 101 kPa, x1 = 0.005905 | 0.7997 mPa·s
303.15 K, 101 kPa, x1 = 0.009253 | 0.8005 mPa·s and 0.8003 mPa·s
303.15 K, 101 kPa, x1 = 0.01811 | 0.8034 mPa·s and 0.8032 mPa·s
303.15 K, 101 kPa, x1 = 0.03656 | 0.8174 mPa·s
303.15 K, 101 kPa, x1 = 0.0468 | 0.8296 mPa·s and 0.8294 mPa·s
303.15 K, 101 kPa, x1 = 0.05806 | 0.8467 mPa·s and 0.8466 mPa·s
303.15 K, 101 kPa, x1 = 0.06612 | 0.8611 mPa·s and 0.8612 mPa·s
303.15 K, 101 kPa, x1 = 0.07583 | 0.8802 mPa·s and 0.8799 mPa·s
307.15 K, 100 kPa, x1 = 0.05933 | 0.798 mPa·s and 0.799 mPa·s
308.15 K, 100 kPa, x1 = 0.05933 | 0.793 mPa·s and 0.794 mPa·s
308.15 K, 101.3 kPa, x1 = 0.00072 | 0.7204 mPa·s
308.15 K, 101.3 kPa, x1 = 0.00162 | 0.721 mPa·s
308.15 K, 101.3 kPa, x1 = 0.007154 | 0.7241 mPa·s
308.15 K, 101.3 kPa, x1 = 0.01245 | 0.7273 mPa·s
308.15 K, 101.3 kPa, x1 = 0.0177 | 0.7305 mPa·s
308.65 K, 100 kPa, x1 = 0.02628 | 0.738 mPa·s and 0.737 mPa·s
308.65 K, 100 kPa, x1 = 0.04316 | 0.761 mPa·s and 0.759 mPa·s
309.15 K, 100 kPa, x1 = 0.008975 | 0.717 mPa·s
309.15 K, 100 kPa, x1 = 0.07333 | 0.805 mPa·s
313.15 K, 101 kPa, x1 = 0.005905 | 0.6585 mPa·s
313.15 K, 101 kPa, x1 = 0.009253 | 0.661 mPa·s
313.15 K, 101 kPa, x1 = 0.01811 | 0.6685 mPa·s and 0.6683 mPa·s
313.15 K, 101 kPa, x1 = 0.02711 | 0.6774 mPa·s
313.15 K, 101 kPa, x1 = 0.03656 | 0.6885 mPa·s
313.15 K, 101 kPa, x1 = 0.0468 | 0.7028 mPa·s
313.15 K, 101 kPa, x1 = 0.05806 | 0.7211 mPa·s
313.15 K, 101 kPa, x1 = 0.06612 | 0.7359 mPa·s
313.15 K, 101 kPa, x1 = 0.07583 | 0.7551 mPa·s
316.15 K, 100 kPa, x1 = 0.008975 | 0.629 mPa·s and 0.63 mPa·s
317.65 K, 100 kPa, x1 = 0.02628 | 0.631 mPa·s
317.65 K, 100 kPa, x1 = 0.05933 | 0.686 mPa·s
318.15 K, 100 kPa, x1 = 0.07333 | 0.705 mPa·s and 0.706 mPa·s
318.15 K, 101.3 kPa, x1 = 0.00072 | 0.5972 mPa·s
318.15 K, 101.3 kPa, x1 = 0.00162 | 0.5983 mPa·s
318.15 K, 101.3 kPa, x1 = 0.002874 | 0.6 mPa·s
318.15 K, 101.3 kPa, x1 = 0.004484 | 0.601 mPa·s
318.15 K, 101.3 kPa, x1 = 0.007154 | 0.6037 mPa·s
319.15 K, 100 kPa, x1 = 0.04316 | 0.643 mPa·s and 0.64 mPa·s
323.15 K, 101 kPa, x1 = 0.005905 | 0.554 mPa·s
323.15 K, 101 kPa, x1 = 0.01811 | 0.5673 mPa·s
323.15 K, 101 kPa, x1 = 0.02711 | 0.5782 mPa·s
323.15 K, 101 kPa, x1 = 0.0468 | 0.6058 mPa·s
323.15 K, 101 kPa, x1 = 0.05806 | 0.6242 mPa·s
323.15 K, 101 kPa, x1 = 0.06612 | 0.6389 mPa·s
323.15 K, 101 kPa, x1 = 0.07583 | 0.6575 mPa·s

CC(C)N + O=C1CCCCC1
298.15 K, 101 kPa
Details | viscosity [mPa·s]
x2 = 0.0627 | 0.41
x2 = 0.1309 | 0.604
x2 = 0.2051 | 0.844
x2 = 0.2865 | 1.135
x2 = 0.3759 | 1.498
x2 = 0.4746 | 1.904
x2 = 0.5842 | 2.083
x2 = 0.7067 | 2.162
x2 = 0.8442 | 2.051

OCC(F)(F)F + O=C1CCCN1
viscosity [mPa·s], 101 kPa
Details | x1 = 0.3 | x1 = 0.4 | x1 = 0.5 | x1 = 0.6 | x1 = 0.7 | x1 = 0.8 | x1 = 0.9
293.15 K | 9.082 | 6.392 | 4.918 | 3.907 | 3.208 | 2.768 | 2.477
303.15 K | 6.16 | 4.724 | 3.801 | 3.071 | 2.519 | 2.146 | 1.882
313.15 K | 4.448 | 3.625 | 3.008 | 2.458 | 2.015 | 1.705 | 1.478
323.15 K | 3.389 | 2.875 | 2.431 | 1.999 | 1.64 | 1.384 | 1.194

C[N+](C)(C)CC(=O)[O-] + O=C1O[C@H]([C@@H](O)CO)C(O)=C1O
Details | viscosity [mPa·s]
298.15 K, 101.33 kPa, x2 = 0.5 | 721.2

C[N+](C)(C)CC(=O)[O-] + O=C(O)CC(O)(CC(=O)O)C(=O)O
101.3 kPa, x1 = 0.333
Details | viscosity [mPa·s]
298 K | 36920
323 K | 2775

Brc1ccccc1 + O=[N+]([O-])c1ccccc1
viscosity [mPa·s], 101 kPa
Details | x2 = 0.117 | x2 = 0.225 | x2 = 0.345 | x2 = 0.464 | x2 = 0.554 | x2 = 0.676 | x2 = 0.79 | x2 = 0.887
298.15 K | 1.106 | 1.164 | 1.227 | 1.296 | 1.352 | 1.465 | 1.556 | 1.673
303.15 K | 1.036 | 1.075 | 1.13 | 1.209 | 1.246 | 1.355 | 1.459 | 1.551
308.15 K | 0.973 | 1.015 | 1.06 | 1.117 | 1.173 | 1.251 | 1.345 | 1.423

C=CC[P+](c1ccccc1)(c1ccccc1)c1ccccc1.[Br-] + OCC(O)CO
101 kPa, x1 = 0.0667
Details | viscosity [mPa·s]
296.84 K | 1037
302.15 K | 679.9
306.82 K | 475.9
312.25 K | 314.4

C1COCCO1 + OCCO
viscosity [mPa·s], 100 kPa
Details | x1 = 0.1014 | x1 = 0.2054 | x1 = 0.2968 | x1 = 0.3998 | x1 = 0.4966 | x1 = 0.5992 | x1 = 0.7005 | x1 = 0.7985 | x1 = 0.8969
293.15 K | 15.53 | 11.26 | 8.022 | 5.534 | 3.77 | 2.758 | 2.223 | 1.737 | 1.405
298.15 K | 12.4 | 9.243 | 6.602 | 4.535 | 3.152 | 2.436 | 1.983 | 1.569 | 1.329
303.15 K | 10.21 | 7.423 | 5.425 | 3.682 | – | 2.169 | 1.78 | 1.401 | –

Reference: the CheMixHub viscosity set
